Read-outs that look alike come from different tables or passages of the source.
What was measured:
[1] = target: T1, RORγ ligand binding domain (LBD) (Homo sapiens, UniProt P51449); assay: TR-FRET Activity Assay (ligand sensing, RORγ-LBD / coactivator peptide interaction, LANCE); format: biochemical
T1 construct: made in house; host or cells: E. coli BL-21 (BL3), vector pDEST15
T1 sequence (P51449 269-508 limits assumed): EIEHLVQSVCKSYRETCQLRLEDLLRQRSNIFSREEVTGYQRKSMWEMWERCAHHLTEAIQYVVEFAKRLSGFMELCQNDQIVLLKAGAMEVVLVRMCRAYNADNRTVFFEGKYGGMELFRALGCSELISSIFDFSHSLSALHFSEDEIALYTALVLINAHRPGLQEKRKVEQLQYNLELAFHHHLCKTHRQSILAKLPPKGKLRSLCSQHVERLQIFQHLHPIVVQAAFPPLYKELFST

RORγ = target: T2, RORγ (UniProt P51449); assay: RORγ Gal4 Reporter Gene Assay in 293T cells (firefly and renilla luciferase); format: cell-based, human
T2 sequence (P51449 1-518): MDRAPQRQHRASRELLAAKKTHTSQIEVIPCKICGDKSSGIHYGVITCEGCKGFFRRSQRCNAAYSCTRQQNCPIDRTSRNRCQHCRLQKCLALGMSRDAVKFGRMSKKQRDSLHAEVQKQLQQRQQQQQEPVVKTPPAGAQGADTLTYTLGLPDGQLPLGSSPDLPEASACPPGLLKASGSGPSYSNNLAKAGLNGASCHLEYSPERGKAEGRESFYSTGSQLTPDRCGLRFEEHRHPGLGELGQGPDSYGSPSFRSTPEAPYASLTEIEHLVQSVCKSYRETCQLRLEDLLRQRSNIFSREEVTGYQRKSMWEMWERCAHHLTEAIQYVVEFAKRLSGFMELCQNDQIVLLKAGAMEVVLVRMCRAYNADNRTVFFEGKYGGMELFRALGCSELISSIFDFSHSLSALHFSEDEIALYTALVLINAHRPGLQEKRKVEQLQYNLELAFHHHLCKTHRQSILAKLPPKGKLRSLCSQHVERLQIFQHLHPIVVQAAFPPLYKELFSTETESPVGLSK

[2] = first value of the cell FRET/FF/REN, TR-FRET activity assay, read-out: pIC50 (FRET) (converted)
[3] = second value of the cell, Gal4 reporter gene assay in 293T cells, firefly luciferase
[4] = third value of the cell, Gal4 reporter gene assay in 293T cells, renilla normalised luciferase

IC50 [1, 2]	pIC50 (FF) (RORγ; [3])	pIC50 (REN) (RORγ; [4])	SMILES	IC50 [1]	pIC50 (FF) (RORγ)	pIC50 (REN) (RORγ)
631 nM	7.3	7.4	Cc1c(S(=O)(=O)NC(C)(C)C)ccc(-c2cc(C(=O)NC3CCOCC3)c(C)n2CC2CCCCC2)c1OC(F)F [17/285]	–	–	–
1580 nM	6.7	6.7	Cc1c(C(=O)N2CC(C(=O)O)C2)cc(-c2cc(C(C)(C)C)c3c(c2)C2(CCO3)CC2)n1CC1CCCCC1 [17/52]	–	–	–
5010 nM	< 4.7	< 4.7	Cc1c(C(=O)NCC(C)(C)O)cc(-c2cc(C(=O)NC(C)(C)C)nc(C3(C)CC3)n2)n1CC1CCCCC1 [17/373]	–	–	–
1260 nM	6.6	6.5	Cc1c(C(=O)NCCc2noc(=O)[nH]2)cc(-c2ccc(S(=O)(=O)NC(C)(C)C)c(C(C)(C)C)c2)n1CC1CCCCC1 [17/331]	–	–	–
631 nM	7.1	7.2	Cc1c(C(=O)NC2COC2)cc(-c2ccc(S(=O)(=O)NC(C)(C)C)c(C(C)(C)C)c2)n1CC1CCCCC1 [9/4]	–	–	–
251 nM	7.3	7.3	CNC(=O)C(C)(C)CNC(=O)c1cc(-c2cc(C(C)(C)C)c3c(c2)C2(CCO3)CC2)n(CC2CCCCC2)c1C [Example 11/1]	–	–	–
251 nM	7.7	7.7	Cc1c(C(=O)NCC(C)(C)NC(=O)CO)cc(-c2cc(C(C)(C)C)c3c(c2)C2(CCO3)CC2)n1CC1CCCCC1 [17/30]	–	–	–
501 nM	< 4.7	< 4.7	Cc1c(C(=O)N2CCOC(C(=O)O)C2)cc(-c2ccc(S(=O)(=O)NC(C)(C)C)c(C(F)(F)F)c2)n1CC1CCCCC1 (stereo not drawn) [17/137]	–	–	–
501 nM	8.0	8.2	Cc1c(C(=O)NCCC(C)(C)C(=O)O)cc(-c2ccc(S(=O)(=O)N[C@@H](C)C(F)(F)F)c(C(F)(F)F)c2)n1CC1CCCCC1 [17/150]	–	–	–
501 nM	7.0	7.2	CC(=O)N1CC(NC(=O)c2cc(-c3cc(C(C)(C)C)cc(C(C)(C)C)c3)n(CC3CCCCC3)c2C)C1 [Example 5, N-(1-Acetylazetidin-3-yl)-1-(cyclohexylmethyl)-5-(3,5-di-tert-butylphenyl)-2-methyl-1H-pyrrole-3-carboxamide]	–	–	–
1260 nM	6.2	6.1	Cc1c(C(N)=O)cc(-c2ccc(S(=O)(=O)NC(C)(C)C)c(C(C)(C)C)c2)n1CC1CCCCC1 [1/13]	–	–	–
1260 nM	6.8	6.7	Cc1c(C(=O)NC2COC2)cc(-c2ccc(C(=O)N3CCCCC3)c(C(C)(C)C)c2)n1CC1CCCCC1 [1/34]	–	–	–
631 nM	7.0	7.0	Cc1c(C(=O)N[C@H]2C[C@H](C(=O)O)C2)cc(-c2cc(C(C)(C)C)cc(C3(O)CC3)c2)n1CC1CCCCC1 [17/155]	–	–	–
1260 nM	7.4	7.4	Cc1c(C(=O)NC2COC2)cc(-c2cc(C(=O)NC(C)C)cc(C(C)(C)C)c2)n1CC1CCCCC1 [15/6]	–	–	–
200 nM	7.6	7.6	Cc1c(C(=O)NC2CCOCC2)cc(-c2cc(Cl)c(S(=O)(=O)NC(C)(C)C)c(Cl)c2)n1CC1CCCCC1 [17/235]	–	–	–
794 nM	7.7	7.7	Cc1c(C(=O)NC2CCOCC2)cc(-c2ccc(S(=O)(=O)NCC(F)(F)F)c(C(C)(C)C)c2)n1CC1CCCCC1 [17/101]	–	–	–
2000 nM	7.6	7.6	Cc1c(C(=O)NC23CCC(C(=O)O)(CC2)C3)cc(-c2cc(C(C)(C)O)cc(C3(C)CC3)c2)n1CC1CCCCC1 [17/301]	–	–	–
398 nM	7.7	7.7	Cc1c(C(=O)NC2CCOCC2)cc(-c2ccc(S(=O)(=O)NC3CCC3)c(C(C)(C)C)c2)n1CC1CCCCC1 [17/228]	–	–	–
1580 nM	7.6	7.6	Cc1c(C(=O)NCC(C)(C)C(=O)O)cc(-c2cc(C(C)(C)C)cc(C3(C)CC3)c2)n1CC1CCCCC1 [17/60]	–	–	–

Continued, molecule first:

SMILES	IC50 [1, 2]	pIC50 (FF) (RORγ; [3])	pIC50 (REN) (RORγ; [4])	IC50 [1]	pIC50 (FF) (RORγ)	pIC50 (REN) (RORγ)
CC(C)(O)CNC(=O)c1cc(-c2ccc(S(=O)(=O)NC(C)(C)C)c(C(C)(C)C)c2)n(CC2CCCCC2)c1C(F)(F)F [1/26]	–	–	–	10000 nM	5.0/<4.7/<4.7	5.0/<4.7/<4.7
Cc1c(C(=O)NC23CCC(C(=O)O)(CC2)CC3)cc(-c2ccc(S(=O)(=O)NC(C)(C)C)c(C(F)(F)F)c2)n1CC1CCCCC1 [17/182]	–	–	–	501 nM	6.3/7.8/7.9	6.3/7.8/7.9
Cc1c(C(=O)NC2COC2)cc(-c2cc(C(=O)N(C)C(C)(C)C)cc(C(C)(C)C)c2)n1CC1CCCCC1 [15/4]	–	–	–	1580 nM	5.8/7.3/7.3	5.8/7.3/7.3
Cc1c(C(=O)NCC2CC2)cc(-c2cc(C(C)(C)C)c3c(c2)C2(CCO3)CC2)n1CC1CCCCC1 [1/102]	501 nM	6.4	6.4	–	–	–
Cc1c(C(=O)NCCc2nn[nH]n2)cc(-c2ccc(S(=O)(=O)NC(C)(C)C)c(C(F)(F)F)c2)n1CC1CCCCC1 [17/335]	316 nM	5.5	5.6	–	–	–
CC(=O)NC(C)(C)CNC(=O)c1cc(-c2cc(C(C)(C)C)c3c(c2)C2(CCO3)CC2)n(CC2CCCCC2)c1C [17/28]	251 nM	7.4	7.4	–	–	–
Cc1c(C(=O)NC2CS(=O)(=O)C2)cc(-c2cc(C(C)(C)C)cc(C(C)(C)C)c2)n1CC1CCCCC1 [Example 3, 1-(Cyclohexylmethyl)-5-(3,5-di-tert-butylphenyl)-N-(1,1-dioxidothietan-3-yl)-2-methyl-1H-pyrrole-3-carboxamide]	–	–	–	251 nM	6.6/7.4/7.4	6.6/7.4/7.4
Cc1c(C(=O)NC2CCOCC2)cc(-c2ccc(S(=O)(=O)NC(C)(C)C)c(C(F)(F)F)c2)n1CC1(F)CCCCC1 [Example 28, 5-(4-(N-(tert-Butyl)sulfamoyl)-3-(trifluoromethyl)phenyl)-1-((1-fluorocyclohexyl)-methyl)-2-methyl-N-(tetrahydro-2H-pyran-4-yl)-1H-pyrrole-3-carboxamide]	1260 nM	6.6	6.9	–	–	–
Cc1c(C(=O)NC2COC2)cc(-c2cc(C(C)(C)C)c3c(c2)C(C)(C)CC(=O)N3C)n1CC1CCCCC1 [1/19]	1000 nM	7.0	7.1	–	–	–
CCc1cc(-c2cc(C(N)=O)c(C)n2CC2CCCCC2)cc2c1OCC2(C)C [1/50]	1580 nM	6.0	6.1	–	–	–
Cc1c(C(=O)NCCS(C)(=O)=O)cc(-c2cc(C(C)(C)C)cc(C(C)(C)C)c2)n1CC1CCCCC1 [1/1]	251 nM	6.6	6.7	–	–	–
Cc1c(C(=O)NC2CCOCC2)cc(-c2ccc(S(=O)(=O)NC(C)(C)CC(F)(F)F)c(C(F)(F)F)c2)n1CC1CCCCC1 [17/143]	126 nM	8.2	8.2	–	–	–
Cc1c(C(=O)NCCCCCS(C)(=O)=O)cc(-c2cc(C(C)(C)C)c3c(c2)C2(CCO3)CC2)n1CC1CCCCC1 [17/4]	–	–	–	631 nM	6.2/6.7/6.7	6.2/6.7/6.7
Cc1c(C(N)=O)cc(-c2cc(C(C)(C)C)c3c(c2)C2(CCO3)CC2)n1CC1CCCCC1 [1/105]	–	–	–	251 nM	6.6/6.5/6.5	6.6/6.5/6.5

From US9815851B2, “Pyrrolo carboxamides as modulators of orphan nuclear receptor RAR-related orphan receptor-gamma (RORγ, NR1F3) activity and for the treatment of chronic inflammatory and autoimmune diseases” (PHENEX PHARMACEUTICALS AG, priority 2011, dated 2017)
